Counter-ions that a name gives are not always drawn.
Experiments:
[1] = molecular target: PI3Kγ (p110γ) Recombinant Human Protein (Homo sapiens (Human), UniProt P48736); experiment: PI3K-γ scintillation proximity assay; assay type: biochemical; details: 20 μM PIP2, 2 μM ATP, 13 nM PI3Kγ, 120 min, room temperature
Excerpt: Example B. PI3K-γ Scintillation Proximity Assay
[γ-^33P]ATP (10 mCi/mL) and Wheat Germ Agglutinin (WGA) YSi SPA Scintillation Beads was purchased from PerkinElmer (Waltham, Mass.). Lipid kinase substrate, D-myo-Phosphatidylinositol 4,5-bisphosphate (PtdIns(4,5)P2)D (+)-sn-1,2-di-O-octanoylglyceryl, 3-O-phospho linked (PIP2), CAS 204858-53-7, was purchased from Echelon Biosciences (Salt Lake City, Utah). PI3Kγ (p110γ) Recombinant Human Protein was purchased from Life technology (Grand Island, N.Y.). ATP, MgCl2, DTT, EDTA, MOPS and CHAPS were purchased from SigmaAldrich (St. Louis, Mo.).
(§1) The kinase reaction was conducted in polystyrene 384-well Greiner Bio-one white plate from Thermo Fisher Scientific in a final volume of 25 μL. Inhibitors were first diluted serially in DMSO and added to the plate wells before the addition of other reaction components. The final concentration of DMSO in the assay was 2%. The PI3Kγ assay was carried out at room temperature in 20 mM MOPS, pH 6.7, 10 mM MgCl2, 5 mM DTT and CHAPS 0.03%. Reactions were initiated by the addition of ATP, the final reaction mixture consisted of 20 μM PIP2, 2 μM ATP, 0.5 μCi [γ-^33P] ATP, 13 nM PI3Kγ. Reactions were incubated for 120 min and terminated by the addition of 40 μL SPA beads suspended in quench buffer: 163 mM potassium phosphate pH 7.8, 20% glycerol, 25 mM EDTA. The final concentration of SPA beads is 1.0 mg/mL. After the plate sealing, plates were shaken overnight at room temperature and centrifuged at 1500 rpm for 10 min, the radioactivity of the product was determined by scintillation counting on Topcount (Perkin-Elmer). IC50 determination was performed by fitting the curve of percent of the solvent control activity versus the log of the inhibitor concentration using the GraphPad Prism 6.0 software.

[2] = molecular target: PI3Kδ (p110δ/p85α) Recombinant Human Protein (Homo sapiens (Human), UniProt O00329); experiment: PI3Kδ scintillation proximity assay; assay type: biochemical; details: 20 μM PIP2, 2 μM ATP, 3.4 nM PI3Kδ, 120 min, room temperature; read-out: PI3Kδ IC50
PI3Kδ (p110δ/p85α) Recombinant Human Protein, sequence (O00329 whole entry): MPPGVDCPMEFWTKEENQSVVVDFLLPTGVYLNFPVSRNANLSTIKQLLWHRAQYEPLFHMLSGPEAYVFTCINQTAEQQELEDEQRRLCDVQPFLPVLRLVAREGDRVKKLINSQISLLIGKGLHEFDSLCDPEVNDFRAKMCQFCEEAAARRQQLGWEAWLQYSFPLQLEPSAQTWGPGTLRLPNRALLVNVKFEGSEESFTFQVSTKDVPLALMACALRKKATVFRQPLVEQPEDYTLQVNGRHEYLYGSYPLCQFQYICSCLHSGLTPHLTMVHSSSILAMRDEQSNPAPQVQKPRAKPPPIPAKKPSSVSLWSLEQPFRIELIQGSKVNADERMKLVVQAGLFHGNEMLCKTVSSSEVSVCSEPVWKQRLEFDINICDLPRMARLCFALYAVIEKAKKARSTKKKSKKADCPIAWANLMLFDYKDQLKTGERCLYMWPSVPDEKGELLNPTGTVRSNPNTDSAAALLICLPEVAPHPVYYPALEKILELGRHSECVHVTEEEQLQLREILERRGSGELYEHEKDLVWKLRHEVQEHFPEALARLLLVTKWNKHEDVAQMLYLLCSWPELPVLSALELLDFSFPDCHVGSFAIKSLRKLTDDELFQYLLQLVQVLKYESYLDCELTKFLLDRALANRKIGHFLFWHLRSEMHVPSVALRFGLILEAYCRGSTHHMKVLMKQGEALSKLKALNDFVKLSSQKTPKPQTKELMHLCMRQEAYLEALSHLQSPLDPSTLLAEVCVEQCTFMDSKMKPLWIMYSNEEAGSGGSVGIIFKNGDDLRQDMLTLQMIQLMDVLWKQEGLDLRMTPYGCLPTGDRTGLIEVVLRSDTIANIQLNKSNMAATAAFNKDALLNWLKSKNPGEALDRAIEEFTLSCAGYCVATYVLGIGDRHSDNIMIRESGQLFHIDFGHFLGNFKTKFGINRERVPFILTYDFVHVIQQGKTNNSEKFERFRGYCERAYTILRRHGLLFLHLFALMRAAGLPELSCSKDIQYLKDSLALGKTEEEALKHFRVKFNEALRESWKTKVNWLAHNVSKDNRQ
PI3Kδ (p110δ/p85α) Recombinant Human Protein, sequence (P27986 whole entry partner): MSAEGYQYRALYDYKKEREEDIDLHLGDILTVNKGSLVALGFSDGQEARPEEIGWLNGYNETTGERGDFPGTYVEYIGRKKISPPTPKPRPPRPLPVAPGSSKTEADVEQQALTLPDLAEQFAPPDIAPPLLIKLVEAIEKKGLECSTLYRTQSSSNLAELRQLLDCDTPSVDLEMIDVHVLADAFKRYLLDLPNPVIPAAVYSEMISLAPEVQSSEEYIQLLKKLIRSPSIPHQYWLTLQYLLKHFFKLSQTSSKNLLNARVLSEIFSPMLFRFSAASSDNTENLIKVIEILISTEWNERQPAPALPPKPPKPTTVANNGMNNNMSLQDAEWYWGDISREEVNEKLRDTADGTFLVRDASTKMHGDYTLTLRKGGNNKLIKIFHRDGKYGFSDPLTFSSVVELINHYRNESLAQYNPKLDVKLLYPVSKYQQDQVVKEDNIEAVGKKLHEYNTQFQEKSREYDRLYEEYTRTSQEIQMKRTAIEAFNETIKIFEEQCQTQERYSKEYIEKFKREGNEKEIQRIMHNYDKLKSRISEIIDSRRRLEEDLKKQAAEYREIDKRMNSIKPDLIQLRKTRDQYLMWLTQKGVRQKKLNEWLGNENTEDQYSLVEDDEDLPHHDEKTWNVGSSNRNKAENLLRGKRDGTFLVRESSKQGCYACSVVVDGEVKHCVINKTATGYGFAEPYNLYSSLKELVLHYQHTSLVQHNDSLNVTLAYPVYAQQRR
Description: PI3Kδ Scintillation Proximity Assay
[γ-^33P]ATP (10 mCi/mL) and Wheat Germ Agglutinin (WGA) YSi SPA Scintillation Beads was purchased from PerkinElmer (Waltham, Mass.). […] PI3Kδ (p110δ/p85α) Recombinant Human Protein was purchased from Eurofins (St Charles, Mo.). ATP, MgCl2, DTT, EDTA, MOPS and CHAPS were purchased from SigmaAldrich (St. Louis, Mo.).
as §1, with “PI3Kδ” for “PI3Kγ”, “ATP, 13 nM PI3Kγ. Reactions were incubated for 120 min and terminated by the addition of 40 μL SPA beads suspended in quench buffer: 163 mM potassium phosphate pH 7.8, 20% glycerol, 25 mM EDTA.” left out, “(PerkinElmer).” for “(Perkin-Elmer).”

PI3Kγ (p110γ) Recombinant Human Protein, sequence (P48736 whole entry): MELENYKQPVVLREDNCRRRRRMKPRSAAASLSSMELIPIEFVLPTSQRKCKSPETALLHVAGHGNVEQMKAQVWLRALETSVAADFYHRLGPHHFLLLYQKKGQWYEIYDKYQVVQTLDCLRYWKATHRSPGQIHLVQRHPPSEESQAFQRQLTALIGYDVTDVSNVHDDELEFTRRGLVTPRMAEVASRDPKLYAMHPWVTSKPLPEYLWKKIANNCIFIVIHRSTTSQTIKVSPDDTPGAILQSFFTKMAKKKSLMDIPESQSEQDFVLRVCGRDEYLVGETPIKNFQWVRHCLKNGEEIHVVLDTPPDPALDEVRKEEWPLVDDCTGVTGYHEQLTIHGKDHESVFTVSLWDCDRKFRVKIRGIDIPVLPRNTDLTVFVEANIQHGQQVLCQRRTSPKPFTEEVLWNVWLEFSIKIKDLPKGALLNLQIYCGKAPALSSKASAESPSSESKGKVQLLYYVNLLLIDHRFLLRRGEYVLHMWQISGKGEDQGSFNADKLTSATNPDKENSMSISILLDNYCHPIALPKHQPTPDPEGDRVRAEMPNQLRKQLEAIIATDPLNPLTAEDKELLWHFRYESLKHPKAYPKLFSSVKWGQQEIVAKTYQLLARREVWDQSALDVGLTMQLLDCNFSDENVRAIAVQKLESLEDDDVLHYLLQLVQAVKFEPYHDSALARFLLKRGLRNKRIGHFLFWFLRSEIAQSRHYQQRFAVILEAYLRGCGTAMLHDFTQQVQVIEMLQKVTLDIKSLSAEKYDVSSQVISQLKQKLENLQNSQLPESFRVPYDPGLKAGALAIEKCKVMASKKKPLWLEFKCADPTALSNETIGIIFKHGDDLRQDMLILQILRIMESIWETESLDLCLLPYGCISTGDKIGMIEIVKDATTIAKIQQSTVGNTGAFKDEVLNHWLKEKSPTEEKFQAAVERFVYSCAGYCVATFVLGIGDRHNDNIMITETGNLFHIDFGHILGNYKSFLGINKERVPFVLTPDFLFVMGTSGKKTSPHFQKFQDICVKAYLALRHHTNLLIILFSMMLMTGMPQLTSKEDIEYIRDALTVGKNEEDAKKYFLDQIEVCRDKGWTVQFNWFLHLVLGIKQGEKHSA

IC50 [1] [µM] | IC50 [2] [µM] | Structure (SMILES)
< 0.1 | 0.5 to 2 | Cc1ccc(C(C)(O)C(F)(F)C(F)(F)F)cc1-c1cnc2c(N)nc(C(F)(F)F)cn12 (single isomer, unassigned) [Example 59, 2-(3-(8-Amino-6-(trifluoromethyl)imidazo[1,2-a]pyrazin-3-yl)-4-methylphenyl)-3,3,4,4,4-pentafluorobutan-2-ol]
< 0.1 | 0.1 to 0.5 | Cc1ccc(C(C)(O)C(F)(F)F)cc1-c1cnc2c(N)nc(C(=O)NCC(C)(C)O)cn12 (single isomer, unassigned) [Example 62, 8-amino-N-(2-hydroxy-2-methylpropyl)-3-(2-methyl-5-(1,1,1-trifluoro-2-hydroxypropan-2-yl)phenyl)imidazo[1,2-a]pyrazine-6-carboxamide]
< 0.1 | 0.1 to 0.5 | [2H]C([2H])([2H])n1nccc1-c1cn2c(-c3cc(C(O)(CO)C(F)(F)F)ccc3C)cnc2c(N)n1 (single isomer, unassigned) [Example 67, 2-(3-(8-Amino-6-(1-(methyl-d3)-1H-pyrazol-5-yl)imidazo[1,2-a]pyrazin-3-yl)-4-methylphenyl)-3,3,3-trifluoropropane-1,2-diol trifluoroacetate salt]
< 0.1 | – | Cc1cc(F)c(C(C)(O)C(F)(F)F)cc1-c1cnc2c(N)nc(C(F)(F)F)cn12 (stereo not shown) [Example 53, 2-(5-(8-Amino-6-(trifluoromethyl)imidazo[1,2-a]pyrazin-3-yl)-2-fluoro-4-methylphenyl)-1,1,1-trifluoropropan-2-ol]
< 0.1 | – | CC(O)(c1cc(-c2cnc3c(N)nc(C(F)(F)F)cn23)ccc1F)C(F)(F)F (stereo not shown) [Example 55, 2-(5-(8-Amino-6-(trifluoromethyl)imidazo[1,2-a]pyrazin-3-yl)-2-fluorophenyl)-1,1,1-trifluoropropan-2-ol]
0.1 to 0.5 | – | Cc1ncc(C(C)(O)C(F)(F)F)cc1-c1cnc2c(N)nc(C(F)(F)F)cn12 (stereo not shown) [Example 58, 2-(5-(8-Amino-6-(trifluoromethyl)imidazo[1,2-a]pyrazin-3-yl)-6-methylpyridin-3-yl)-1,1,1-trifluoropropan-2-ol]

The next lines start with the compound.

Structure (SMILES) | IC50 [1] [µM] | IC50 [2] [µM]
CC(O)(c1cc(-c2cnc3c(N)nc(C(F)(F)F)cn23)c2ccn(S(=O)(=O)c3ccccc3)c2c1)C(F)(F)F (racemic) [Example 224, 2-(4-(8-Amino-6-(trifluoromethyl)imidazo[1,2-a]pyrazin-3-yl)-1-(phenylsulfonyl)-1H-indol-6-yl)-1,1,1-trifluoropropan-2-ol] | 0.1 to 0.5 | 0.5 to 2
[2H]C([2H])([2H])c1ccc(C(O)(C(C)(C)O)C(F)(F)F)cc1-c1cnc2c(N)nc(C(F)(F)F)cn12 (racemic) [Example 235, 2-(3-(8-Amino-6-(trifluoromethyl)imidazo[1,2-a]pyrazin-3-yl)-4-(methyl-d3)phenyl)-1,1,1-trifluoro-3-methylbutane-2,3-diol trifluoroacetate salt] | < 0.1 | 0.1 to 0.5
Cc1cnc(C(C)(O)C(F)(F)F)cc1-c1cnc2c(N)nc(C(F)(F)F)cn12 (stereo not shown) [Example 54, 2-(4-(8-Amino-6-(trifluoromethyl)imidazo[1,2-a]pyrazin-3-yl)-5-methylpyridin-2-yl)-1,1,1-trifluoropropan-2-ol] | < 0.1 | –
CC(O)(c1cccc(-c2cnc3c(N)nc(C(F)(F)F)cn23)c1)C(F)(F)F (stereo not shown) [Example 56, 2-(3-(8-Amino-6-(trifluoromethyl)imidazo[1,2-a]pyrazin-3-yl)phenyl)-1,1,1-trifluoropropan-2-ol] | < 0.1 | –
CC(O)(c1ccc(F)c(-c2cnc3c(N)nc(C(F)(F)F)cn23)c1)C(F)(F)F (stereo not shown) [Example 57, 2-(3-(8-Amino-6-(trifluoromethyl)imidazo[1,2-a]pyrazin-3-yl)-4-fluorophenyl)-1,1,1-trifluoropropan-2-ol] | < 0.1 | –

— patent publication US10738057B2, “Tertiary alcohols as PI3K-γ inhibitors” (Incyte Corporation, priority 2017, dated 2020)
